From the NIST ThermoML archive (doi:10.1021/je700448v)
± gives the expanded uncertainty stated by the source.

Legend:
[1] = Crystal; DTA
[2] = Molar enthalpy of transition or fusion; details: Crystal; DSC

In the case of `O=Cc1ccc(Br)cc1` [4-bromobenzaldehyde], the Normal melting temperature [1] is reported as 61.1 ± 0.4 °C and the “Molar enthalpy of transition or fusion” value [2] is reported as 5.41 ± 0.124 kcal/mol.
